The test system of one experiment is HepG2 cells. In words: Cell growth inhibition measurement (CCK-8), HepG2. Format: cell-based. As to conditions: Homo sapiens, HepG2, 72 h, highest EC50 measured during one or multiple operations, read-out: Inhibition activity against cancer cells, HepG2 (EC50). From the text: (§1) A HepG2 cell strain and an HCT-116 cell strain were purchased from Shanghai Institutes for Biological Sciences; a DMEM high-sugar culture medium and an MEM culture medium were purchased from Hyclone; fetal calf serum was purchased from Gibco; trypsin was purchased from Invitrogen Shanghai; a CCK-8 kit was purchased from Beyotime Institute of Biotechnology; and, the remaining cell culture mediums and other consumables were purchased from Corning China.
(§2) HepG2 cells and HCT-116 cells in the logarithmic growth phase were digested by trypsin. After the counting of uniform cell suspension, the cell density was adjusted as 1500 cells/well by a culture medium containing 10% serum. The cells were re-inoculated to a 96-well cell culture plate, and cultured to a volume of 200 μL at 37° C. in an incubator containing 5% CO2. The cells could be tested after being cultured for 24 h.
(§3) The cells cultured for 24 h were taken out from the incubator. The culture liquid in the well plate was sucked out, and 200 μL of compound solution prepared in the culture medium containing 10% fetal calf serum was added in each well. Five parallel mediums were provided for each concentration, and a DMSO culture medium was used as negative control. The culture mediums were cultured for 72 h at 37° C. in an incubator containing 5% CO2, and CCK-8 detection was performed.
(§4) A serum-free culture medium and CCK-8 solution were prepared, and CCK-8 working solution was prepared at a ratio of 10:1 (this process should be performed in dark place).
(§5) The cells cultured for 72 h were taken out from the incubator. The culture liquid in the well plate was sucked out, and 120 μL of the CCK-8 working solution was added in each well. A well plate without cells was also added with 120 μL of the CCK-8 working solution to serve as blank control. The well plates were cultured for 1 h at 37° C. in an incubator containing 5% CO2 (this process should be performed in dark place).
(§6) The well plates were taken out from the incubator, 100 μL of solution in each well was sucked out and added in a new 96-well plate, and the absorbance was measured at 450 nm (this process should be performed in dark place).
(§7) where Tx is the absorbance of the CCK-8 after the compound acts for 72 h;
(§8) C is the absorbance of the CCK-8 after the negative control wells are cultured for 72 h; and
(§9) B is the absorbance of the CCK-8 in the blank control wells.
(§10) The test results of the compounds prepared according to the embodiments during the measurement are shown in Table 3, wherein the measured highest EC50 of the compounds during one operation or multiple operations is classified according to the following description: […]

A further experiment has as its system HCT-116 cells. Put plainly: Cell growth inhibition measurement (CCK-8), HCT-116. Format: cell-based. To be noted: Homo sapiens, HCT-116, 72 h, highest EC50 measured during one or multiple operations, read-out: Inhibition activity against cancer cells, HCT-116 (EC50).
Description: as §1, §2, §3, §4, §5, §6, §7, §8, §9, §10

The target in the next experiment is HDAC 1 (Homo sapiens, UniProt Q13547). In words: Enzyme activity detection of histone deacetylase 1 (fluorogenic substrate deacetylation). It counts as biochemical. As to conditions: 0.28 ng/μL HDAC 1, 10 μM substrate; IC50 class. The text has this: During the deacetylation detection of a substrate, the HDAC inhibition activity of the compound of the present invention was detected.
HDAC 1, sequence (Q13547 whole entry, species assumed): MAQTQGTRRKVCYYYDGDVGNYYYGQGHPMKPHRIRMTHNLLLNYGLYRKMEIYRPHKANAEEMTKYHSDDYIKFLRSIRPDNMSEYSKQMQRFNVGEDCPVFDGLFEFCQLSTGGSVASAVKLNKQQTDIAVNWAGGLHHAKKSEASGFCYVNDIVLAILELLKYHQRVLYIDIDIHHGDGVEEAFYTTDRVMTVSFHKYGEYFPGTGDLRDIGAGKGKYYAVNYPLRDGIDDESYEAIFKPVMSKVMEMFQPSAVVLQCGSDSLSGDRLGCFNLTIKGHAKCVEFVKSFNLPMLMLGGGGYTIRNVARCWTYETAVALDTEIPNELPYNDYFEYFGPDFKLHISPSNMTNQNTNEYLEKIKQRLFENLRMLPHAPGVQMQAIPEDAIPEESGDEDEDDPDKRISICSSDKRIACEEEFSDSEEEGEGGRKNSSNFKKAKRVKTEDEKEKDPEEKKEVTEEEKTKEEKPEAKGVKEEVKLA
C: Enzyme Activity Detection of Histone Deacetylase 1
Acetyl on the substrate was removed by the HDAC 1, so that the substrate was activated, and the developing liquid added subsequently could act on the substrate to release the fluorescent group. The size of the fluorescence signal reflected the activity of the HDAC 1. The IC50 detection method for this enzyme was disclosed in Chuping Xu, Elisabetta Soragni Improved Histone Deacetylase Inhibitors as Therapeutics for the Neurdegenerative Disease Friedreich's Ataxia: A New Synthetic Route. The total reaction system (100 μL/well) contained 0.28 ng/μL of HDAC 1, 10 μM of the substrate and the compound in different concentrations. The fluorescence signal was detected online at Ex/Em=360/460. The inhibition effect of the compound was determined from the obtained data, a concentration response curve was obtained by using the inhibition effect and the concentration of the compound, and the value of IC50 was fitted according to a four-parameter model.
The activities of the compounds prepared in the embodiments against the histone deacetylases 1, 3 and 6 (i.e., HDAC 1, HDAC 3 and HDAC 6) were detected by the above methods, and the test results were shown in Table 2, where the measurements of IC50 of the compounds were classified according to the following description: […]

With `CN1CCN(c2ccc(-c3ccc(S(=O)(=O)N4CC=C(C(=O)NO)CC4)cc3)cc2F)CC1` [Compound 3, N-hydroxyl-1-((3′-fluoro-4′-(4-methylpiperazine-1-yl)-[1,1′-biphenyl]-4-yl)sulfonyl)-1,2,3,6-tetrahydropyridine-4-formamide], the EC50 in the experiment on HepG2 cells was under 0.1 µM.
With `COCCN1CCN(c2ccc(-c3ccc(S(=O)(=O)N4CC=C(C(=O)NO)CC4)cc3)cc2)CC1` [Compound 4, N-hydroxyl-1-((4′-(4-(2-methoxyethyl)piperazine-1-yl)-[1,1′-biphenyl]-4-yl)sulfonyl)-1,2,3,6-tetrahydropyridine-4-formamide], in the experiment with HepG2 cells, the EC50 was under 0.1 µM.
On the same count and under the same terms, then `CN1CCN(c2ccc(-c3ccc(S(=O)(=O)N4CC=C(C(=O)NO)CC4)cc3)cn2)CC1` [Compound 5], with under 0.1 µM.
Consider `CCN1CCN(c2ccc(-c3ccc(S(=O)(=O)N4CC=C(C(=O)NO)CC4)cc3)cc2)CC1` [Compound 6], for which the EC50 in the experiment on HepG2 cells and with HCT-116 cells was under 0.1 µM throughout. At HDAC 1, this compound returned an IC50 of under 0.1 µM.
For `CN1CCN(c2ccc(-c3ccc(S(=O)(=O)N4CC=C(C(=O)NO)CC4)cc3F)cc2)CC1` [Compound 7, N-hydroxyl-1-((2-fluoro-4′-(4-methylpiperazine-1-yl)-[1,1′-biphenyl]-4-yl)sulfonyl)-1,2,3,6-tetrahydropyridine-4-formamide], the EC50 with HepG2 cells and in the experiment with HCT-116 cells was under 0.1 µM each time.
As to `CN(C)Cc1ccc(-c2ccc(S(=O)(=O)N3CC=C(C(=O)NO)CC3)cc2)cc1` [Compound 8, N-hydroxyl-1((4′-((dimethylamino)methyl)-[1, 1′-biphenyl]-4-yl)sulfonyl)-1,2,3,6-tetrahydropyridine-4-formamide], the EC50 in the experiment with HepG2 cells and with HCT-116 cells was under 0.1 µM in each case. At HDAC 1, this compound had an IC50 of under 0.1 µM.
Turning to `CC1CN(c2ccc(-c3ccc(S(=O)(=O)N4CC=C(C(=O)NO)CC4)cc3)cc2)CCN1C` (stereo not shown) [Compound 9, N-hydroxyl-1-((4′-(3,4′-dimethylpiperazine-1-yl)-[1,1′-biphenyl]-4-yl)sulfonyl)-1,2,3,6-tetrahydropyridine-4-formamide], the EC50 with HepG2 cells was under 0.1 µM.
On the same count and under the same terms, then `O=C(NO)C1=CCN(S(=O)(=O)c2ccc(-c3ccc(N4CCNCC4)cc3)cc2)CC1` [Compound 10, N-hydroxyl-1-((4′-(piperazine-1-yl)-[1,1′-biphenyl]-4-yl)sulfonyl)-1,2,3,6-tetrahydropyridine-4-formamide], with under 0.1 µM; and `O=C(NO)C1=CCN(S(=O)(=O)c2ccc(-c3ccc(N4CCN(C5CC5)CC4)cc3)cc2)CC1` [Compound 11, N-hydroxyl-1-((4′-(4-cyclopropylpiperazine-1-yl)-[1,1′-biphenyl]-4-yl)sulfonyl)-1,2,3,6-tetrahydropyridine-4-formamide], with under 0.1 µM.
Turning to `CN(C)CCc1ccc(-c2ccc(S(=O)(=O)N3CC=C(C(=O)NO)CC3)cc2)cc1` [Compound 12, N-hydroxyl-1-((4′-(2-(dimethylamino)ethyl)-[1, 1′-biphenyl]-4-yl)sulfonyl)-1,2,3,6-tetrahydropyridine-4-formamide], the half-maximal effective concentration (EC50) in the experiment with HepG2 cells and in the experiment on HCT-116 cells was under 0.1 µM in each case. At HDAC 1, this compound showed an IC50 of under 0.1 µM.
Turning to `CN1CCN(c2ccc(-c3ccc(S(=O)(=O)N4CC=C(C(=O)NO)CC4)cn3)cc2)CC1` [Compound 13, N-hydroxyl-1-((6-(4-(4-methylpiperazine-1-yl)phenyl)pyridine-3-yl)sulfonyl)-1,2,3,6-tetrahydropyridine-4-formamide], the EC50 in the experiment on HepG2 cells and in the experiment on HCT-116 cells was under 0.1 µM in each case. Also, the IC50 at HDAC 1 is under 0.1 µM.
For the compound `CN1CCC(n2cc(-c3ccc(S(=O)(=O)N4CC=C(C(=O)NO)CC4)cc3)cn2)CC1` [Compound 14, N-hydroxyl-1-((4-(1-(1-methylpiperidine-4-yl)-1H-pyrazol-4-yl)phenyl)sulfonyl)-1,2,3,6-tetrahydropyridine-4-formamide], in the experiment with HepG2 cells, the 50% effective concentration (EC50) is over 0.1 µM.
In the case of `CN1CCN(c2ccc(-c3ccc(S(=O)(=O)N4C=CC(C(=O)NO)CC4)cc3)cc2)CC1` (stereo not shown) [Compound 15, N-hydroxyl-1-((4′-(4-methylpiperazine-1-yl)-[1, 1′-biphenyl]-4-yl)sulfonyl)-1,2,3,4-tetrahydropyridine-4-formamide], the EC50 in the experiment with HepG2 cells and in the experiment with HCT-116 cells was under 0.1 µM throughout. At HDAC 1, this compound had an IC50 of under 0.1 µM.
For the compound `COCCN1CCN(c2ccc(-c3ccc(S(=O)(=O)N4CC=C(C(=O)NO)CC4)cc3)cn2)CC1` [Compound 17, N-hydroxyl-1-((4-(6-(4-(2-methoxyethyl)piperazine-1-yl)pyridine-3-yl)phenyl)sulfonyl)-1,2,3,6-tetrahydropyridine-4-formamide], the EC50 in the experiment on HepG2 cells is over 0.1 µM.
For the compound `CCN(CC)Cc1ccc(-c2ccc(S(=O)(=O)N3CC=C(C(=O)NO)CC3)cc2)cc1` [Compound 18, N-hydroxyl-1-((4′-((diethylamino)methyl)-[1,1′-biphenyl]-4-yl)sulfonyl)-1,2,3,6-tetrahydropyridine-4-formamide], the EC50 in the experiment with HepG2 cells and in the experiment with HCT-116 cells was under 0.1 µM throughout. This compound also yielded an IC50 against HDAC 1 of under 0.1 µM.
`CN1CCN(Cc2ccc(-c3ccc(S(=O)(=O)N4CC=C(C(=O)NO)CC4)cc3)cc2)CC1` [Compound 20, N-hydroxyl-1-((4′-((4-methylpiperazine-1-yl)methyl)-[1,1′-biphenyl]-4-yl)sulfonyl)-1,2,3,6-tetrahydropyridazole-4-formamide]: the EC50 with HepG2 cells and in the experiment on HCT-116 cells was under 0.1 µM in each case.
In the case of `O=C(NO)C1=CCN(S(=O)(=O)c2ccc(-c3ccc(CN4CCOCC4)cc3)cc2)CC1` [Compound 21, N-hydroxyl-1-((4′-(morpholinylmethyl)-[1,1′-biphenyl]-4-yl)sulfonyl)-1,2,3,6-tetrahydropyridine-4-formamide], the EC50 in the experiment on HepG2 cells and in the experiment on HCT-116 cells was under 0.1 µM in each case.
In the case of `CN(C)CCNC(=O)c1ccc(-c2ccc(S(=O)(=O)N3CC=C(C(=O)NO)CC3)cc2)cc1` [Compound 22, N-hydroxyl-1-((4′-((2-(dimethylamino)ethyl)aminoformyl)-[1,1′-biphenyl]-4-yl)sulfonyl)-1,2,3,6-tetrahydropyridine-4-formamide], the EC50 in the experiment on HepG2 cells is over 0.1 µM.
Still for that read-out and setting: then `CN1CCCN(c2ccc(-c3ccc(S(=O)(=O)N4CC=C(C(=O)NO)CC4)cc3)cn2)CC1` [Compound 24, N-hydroxyl-1-((4-(6-(4-methyl-1,4-diazaheptane-1-yl)pyridine-3-yl)phenyl)sulfonyl)-1,2,3,6-tetrahydropyridine-4-formamide], with under 0.1 µM.

(Values after patent publication US11149008B2, “Sulfamide derivatives and preparation method and use thereof” (HitGen Ltd., priority 2015, dated 2021).)
